A word on the IC50: it is the midpoint of a concentration-inhibition curve.

Molecules are shown by their SMILES.

Chain of BTK kinase (Q06187 whole entry): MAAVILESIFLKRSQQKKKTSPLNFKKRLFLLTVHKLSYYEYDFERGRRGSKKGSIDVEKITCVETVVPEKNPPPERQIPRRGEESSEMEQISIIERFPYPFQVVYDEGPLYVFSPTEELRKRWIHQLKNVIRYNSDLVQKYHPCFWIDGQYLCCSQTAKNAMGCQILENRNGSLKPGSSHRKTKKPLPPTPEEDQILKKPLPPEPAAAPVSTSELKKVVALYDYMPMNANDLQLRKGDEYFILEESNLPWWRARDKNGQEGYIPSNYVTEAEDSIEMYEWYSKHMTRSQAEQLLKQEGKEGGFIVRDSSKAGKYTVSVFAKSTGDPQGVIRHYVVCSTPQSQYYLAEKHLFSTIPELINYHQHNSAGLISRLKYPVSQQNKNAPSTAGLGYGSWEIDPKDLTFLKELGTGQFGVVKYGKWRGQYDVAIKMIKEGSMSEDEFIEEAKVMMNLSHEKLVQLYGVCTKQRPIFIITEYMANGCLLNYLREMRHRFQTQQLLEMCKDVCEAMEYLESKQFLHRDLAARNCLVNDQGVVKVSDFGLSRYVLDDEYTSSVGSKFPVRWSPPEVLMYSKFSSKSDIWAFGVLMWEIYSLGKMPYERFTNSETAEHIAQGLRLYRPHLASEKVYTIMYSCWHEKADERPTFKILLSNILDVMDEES

The target of the assay is BTK kinase (Homo sapiens (Human), UniProt Q06187). The assay is described as follows: BTK kinase experiment (ADP-Glo). It is filed as biochemical. Particulars: 2 μM ATP, PolyE4Y1 substrate, 30 minutes pre-incubation. The procedure:
BTK kinase, PolyE4Y1 substrate and Kinase assay buffer III were purchased from Signalchem; ADP-Glo Kinase Assay was purchased from Promega; Nivo multi-label analyzer (PerkinElmer).
1× buffer preparation (which was prepared and used immediately): Kinase assay buffer III was diluted with ddH2O to 1× assay buffer for later use.
The compound to be tested was diluted with 100% DMSO to 10 μM as the first concentration, and followed by a 5-fold dilution to the 8th concentration using a multi-channel pipette, i.e., it was diluted from 10 μM to 0.128 nM.
Each gradient of the compound to be tested was diluted into a working solution with 5% DMSO using 1× buffer, 1 μL/well was added to the corresponding well, and a double-replicate well experiment was set up. 2 μL of BTK enzyme (4 ng) was add to each well and incubating at 25° C. for 30 minutes. After the incubation was completed, 2 μL of a mixture of substrate and ATP (2 μM ATP, 0.2 μg/μL PolyE4Y1) was added to each well and incubating at 25° C. for 120 minutes. At this point, the final concentration gradient of the compound was diluted from 100 nM to 0.00128 nM. After the reaction was completed, 5 μL of ADP-Glo reagent was added to each well, and the reaction continued at 25° C. for 40 minutes. After the reaction was completed, 10 μL of kinase detection reagent was added to each well. After reacting at 25° C. for 30 minutes, PerkinElmer Nivo multi-label analyzer was used to read the chemiluminescence, and the integration time was 0.5 seconds.
Raw data was converted into inhibition rate using the equation: (Sample−Min)/(Max−Min)*100%. The IC50 value could then be derived by performing a curve fit using four-parameter (which was obtained using the “log(inhibitor) vs. response-Variable slope” mode in GraphPad Prism).
On the technique in general: ADP-Glo first removes unused ATP, then detects ADP through luciferase.
`C=CC(=O)N1CCC[C@@H](n2c(=O)n(-c3ccc(CNC(=O)c4cc(F)ccc4OC)cc3)c3c(N)nccc32)C1` [Compound 001] registered an IC50 of 0.71 nM.

For the compound `COc1cccc(Oc2ccc(-n3c(=O)n([C@@H]4CCCN(C(=O)/C=C/CF)C4)c4ccnc(N)c43)cc2)c1F` [Compound 004], the IC50 stood at 2.46 nM.

`Nc1nccc2c1n(-c1ccc(Oc3c(F)cccc3F)cc1)c(=O)n2[C@@H]1CCCN(C(=O)/C=C/CF)C1` [Compound 005]: the midpoint of inhibition, the IC50, lay at 2.85 nM.

With `Nc1nccc2c1n(-c1ccc(Oc3ccc(Br)cn3)cc1)c(=O)n2[C@@H]1CCCN(C(=O)/C=C/CF)C1` [Compound 006], the IC50 was 13.6 nM.

On to `Nc1nccc2c1n(-c1ccc(Oc3ccc(Cl)cn3)cc1)c(=O)n2[C@@H]1CCCN(C(=O)/C=C/CF)C1` [Compound 007], for which the IC50 came to 16 nM.

In turn, `Nc1nccc2c1n(-c1ccc(Oc3ccc(F)cn3)cc1)c(=O)n2[C@@H]1CCCN(C(=O)/C=C/CF)C1` [Compound 008] had an IC50 of 36.5 nM.

Regarding `Nc1nccc2c1n(-c1ccc(Oc3ccccc3)c(F)c1)c(=O)n2[C@@H]1CCCN(C(=O)/C=C/CF)C1` [Compound 009], half-maximal inhibition (IC50) required 2.8 nM.

Consider `Cc1cc(-n2c(=O)n([C@@H]3CCCN(C(=O)/C=C/CF)C3)c3ccnc(N)c32)ccc1Oc1ccccc1` [Compound 010], for which the midpoint of inhibition, the IC50, lay at 3.04 nM.

In turn, `Nc1nccc2c1n(-c1ccc(Oc3ccccc3)c(Cl)c1)c(=O)n2[C@@H]1CCCN(C(=O)/C=C/CF)C1` [Compound 011] registered an IC50 of 1.57 nM.

The values above are taken from patent publication US20240217973A1, “IMIDAZOPYRIDINE COMPOUNDS AND USE THEREOF” (MEDSHINE DISCOVERY INC., priority 2021, published 2024).
